According to patent publication US7449202B1, “Compositions and methods for prostate and kidney health and disorders, an herbal preparation” (Integrated Chinese Medicine Holdings, Ltd., priority 2003, dated 2008):

Assay: case report: enlarged prostate with frequent urination
Format: in vivo, human
Settings: person, prescribed for enlarged prostate
Description: The 9-herb composition and Incontinence. Person diagnosed with having an enlarged prostate suffered from frequent-urination problems including increased daily frequency and reduced volume. They had the urge to urinate every two hours and the amount was only a few drops. Their symptoms were attributed to old age. […] After a period of time on this regimen, their urinary frequency decreased. The person reports that they only go to the bathroom every four hours instead of every two hours during the day. They are able to urinate what they consider a normal amount of urine in a steady stream as opposed to the dribbling they experienced prior to taking the 9-herb composition. The biggest benefit they experienced, however, is sleeping through the night without having to get up and go to the bathroom. Because they are sleeping better, they have more energy throughout the day.

## CC(C)(C)NC(=O)[C@H]1CC[C@H]2[C@@H]3CC[C@H]4NC(=O)C=C[C@]4(C)[C@H]3CC[C@]12C [PROSCAR]
  urination problem: did not alleviate the urination problem
